Laboratory results published in PMC6072853 (Frontiers in Pharmacology, 2018).

How the values were obtained:
[1] = target: T1, human androgenic receptor (Homo sapiens, UniProt P10275); assay: Yeast-based androgenic reporter assay, agonistic; format: cell-based; conditions: read-out: Calculated EC50 values, androgenic activity
T1 construct: host or cells: Saccharomyces cerevisiae
T1 sequence (P10275 1-920): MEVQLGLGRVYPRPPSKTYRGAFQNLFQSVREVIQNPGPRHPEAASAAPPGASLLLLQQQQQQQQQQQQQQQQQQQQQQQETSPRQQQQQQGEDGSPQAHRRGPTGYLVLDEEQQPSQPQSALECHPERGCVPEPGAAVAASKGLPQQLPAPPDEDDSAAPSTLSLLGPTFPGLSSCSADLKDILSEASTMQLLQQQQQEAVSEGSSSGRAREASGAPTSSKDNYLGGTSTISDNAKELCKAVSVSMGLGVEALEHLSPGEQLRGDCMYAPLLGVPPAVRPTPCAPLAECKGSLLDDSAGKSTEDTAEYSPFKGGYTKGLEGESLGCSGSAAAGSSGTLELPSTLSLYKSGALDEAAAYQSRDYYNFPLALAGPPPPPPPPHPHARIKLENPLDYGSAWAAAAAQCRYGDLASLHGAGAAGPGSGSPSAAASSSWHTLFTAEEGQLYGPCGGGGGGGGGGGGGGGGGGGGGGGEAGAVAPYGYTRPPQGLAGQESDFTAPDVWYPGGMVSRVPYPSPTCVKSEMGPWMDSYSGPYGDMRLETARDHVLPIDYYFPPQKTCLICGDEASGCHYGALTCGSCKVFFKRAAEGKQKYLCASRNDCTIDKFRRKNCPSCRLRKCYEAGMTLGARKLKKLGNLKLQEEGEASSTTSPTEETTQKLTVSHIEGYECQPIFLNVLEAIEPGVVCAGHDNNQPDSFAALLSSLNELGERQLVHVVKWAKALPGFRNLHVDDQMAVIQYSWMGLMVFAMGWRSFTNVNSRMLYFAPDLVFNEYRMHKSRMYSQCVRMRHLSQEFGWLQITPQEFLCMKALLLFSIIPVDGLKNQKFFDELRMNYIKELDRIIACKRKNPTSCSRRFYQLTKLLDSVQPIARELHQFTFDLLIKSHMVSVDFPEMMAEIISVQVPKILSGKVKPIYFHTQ
Protocol: Genetically modified yeast cells (Saccharomyces cerevisiae) containing the human androgenic receptor gene integrated into a yeast chromosome, as well as an expression plasmid with the sequences of both the androgen responsive element and a lacZ reporter gene were cultured in humidified air at 31°C with agitation for 2 days. The appropriate concentrations of the test compounds and a CPRG substrate solution (chlorophenol red-β-D-galactopyranoside) for β-galactosidase were added into a 96-well microplate according to the instructions of the manufacturer. Androgen agonistic and antagonistic properties of the test compounds were determined by a colorimetric assay. For the antagonistic measurements the medium was supplemented with 5α-dihydrotestosterone (DHT). Once the reporter gene is expressed, β-galactosidase is secreted into the medium, and converts the yellow CPRG substrate into a red product, which can be quantified at 570 nm. Quantities of this red product correlate with the liberation of β-galactosidase, which is increased when an agonistic effect is present, while it is decreased when the test compound exerts an antagonistic effect. For the agonistic and antagonistic assays, nandrolone (1) and flutamide were used as reference agents, respectively.

[2] = target: T1, human androgenic receptor; assay: Yeast-based androgenic reporter assay, antagonistic; format: cell-based; conditions: in the presence of 5α-dihydrotestosterone
Protocol: An endocrine bioassay kit (Xenometrix AG, Allschwil, Switzerland) was used to test for a potential residual androgenic activity of the selected agents. Genetically modified yeast cells (Saccharomyces cerevisiae) containing the human androgenic receptor gene integrated into a yeast chromosome, as well as an expression plasmid with the sequences of both the androgen responsive element and a lacZ reporter gene were cultured in humidified air at 31°C with agitation for 2 days. The appropriate concentrations of the test compounds and a CPRG substrate solution (chlorophenol red-β-D-galactopyranoside) for β-galactosidase were added into a 96-well microplate according to the instructions of the manufacturer. Androgen agonistic and antagonistic properties of the test compounds were determined by a colorimetric assay. For the antagonistic measurements the medium was supplemented with 5α-dihydrotestosterone (DHT). Once the reporter gene is expressed, β-galactosidase is secreted into the medium, and converts the yellow CPRG substrate into a red product, which can be quantified at 570 nm. Quantities of this red product correlate with the liberation of β-galactosidase, which is increased when an agonistic effect is present, while it is decreased when the test compound exerts an antagonistic effect. […]

`C[C@]12CC[C@H]3[C@@H](CCC4=CC(=O)CC[C@@H]43)[C@@H]1CC[C@H]2Cl` [Compound 3] was tested, and the EC50 [1] was 3.8 µM and the androgen antagonistic activity [2] was “no antagonistic activity”.
